Results as given in BindingDB's records for doi:10.1021/acs.jmedchem.1c01951 (University of South Carolina, 2022).

Molecular target: T1, Myosin-IIIb (Homo sapiens, UniProt Q8WXR4)
T1 sequence (Q8WXR4 whole entry): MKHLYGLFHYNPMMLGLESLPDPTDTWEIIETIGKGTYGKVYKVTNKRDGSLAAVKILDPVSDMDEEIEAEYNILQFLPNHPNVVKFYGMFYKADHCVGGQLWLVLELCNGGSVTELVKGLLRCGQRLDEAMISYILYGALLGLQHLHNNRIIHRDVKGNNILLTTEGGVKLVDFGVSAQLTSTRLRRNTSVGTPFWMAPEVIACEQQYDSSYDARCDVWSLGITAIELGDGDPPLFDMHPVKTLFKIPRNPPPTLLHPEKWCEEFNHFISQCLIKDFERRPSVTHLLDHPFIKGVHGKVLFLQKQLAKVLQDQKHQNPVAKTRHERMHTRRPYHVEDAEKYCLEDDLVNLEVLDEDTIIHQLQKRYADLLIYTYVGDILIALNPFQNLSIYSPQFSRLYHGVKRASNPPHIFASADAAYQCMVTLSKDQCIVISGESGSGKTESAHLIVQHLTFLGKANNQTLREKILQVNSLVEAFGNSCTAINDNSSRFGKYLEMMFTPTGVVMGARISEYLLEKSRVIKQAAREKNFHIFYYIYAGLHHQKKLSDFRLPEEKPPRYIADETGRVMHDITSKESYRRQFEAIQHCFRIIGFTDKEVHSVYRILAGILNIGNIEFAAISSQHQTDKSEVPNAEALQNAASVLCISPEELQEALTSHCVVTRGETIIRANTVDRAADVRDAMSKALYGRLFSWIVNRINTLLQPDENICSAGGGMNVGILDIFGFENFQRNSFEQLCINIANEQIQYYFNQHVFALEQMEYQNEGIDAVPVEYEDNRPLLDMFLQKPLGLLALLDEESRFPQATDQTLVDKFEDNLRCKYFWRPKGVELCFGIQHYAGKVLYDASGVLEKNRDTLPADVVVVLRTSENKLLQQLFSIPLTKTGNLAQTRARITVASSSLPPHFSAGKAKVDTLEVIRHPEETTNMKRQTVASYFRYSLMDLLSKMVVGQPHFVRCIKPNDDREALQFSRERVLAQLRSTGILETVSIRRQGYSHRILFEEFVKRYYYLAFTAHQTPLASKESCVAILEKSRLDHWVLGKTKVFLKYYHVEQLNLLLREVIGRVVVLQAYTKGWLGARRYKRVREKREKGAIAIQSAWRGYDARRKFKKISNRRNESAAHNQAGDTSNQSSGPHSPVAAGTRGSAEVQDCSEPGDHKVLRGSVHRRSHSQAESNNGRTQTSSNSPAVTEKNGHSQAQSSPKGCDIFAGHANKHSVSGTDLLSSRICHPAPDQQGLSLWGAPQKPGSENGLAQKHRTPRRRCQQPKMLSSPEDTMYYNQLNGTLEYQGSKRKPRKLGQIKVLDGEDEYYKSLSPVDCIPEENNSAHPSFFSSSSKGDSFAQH
Assay: Binding affinity to human MYO3B assessed as dissociation constant by KdELECT Discover assay

CN1CCN(C(=O)c2ccc3cc(CCNc4ccnc5ccc(C#N)cc45)ccc3c2)CC1
Kd: > 30 µM
